Test results reported in ChEMBL document CHEMBL1201862, “PubChem BioAssay data set” (2004).
The source made the active and inactive calls.

Tests used:
[1] = molecular target: Benomyl/methotrexate resistance protein (Candida albicans, UniProt P28873); assay: CaMdr1 efflux pump inhibitor potency, dose response, singleplex, Cherry Pick1 hits (AID 588608); assay type: functional
[2] = molecular target: Ras and Rab interactor 1/Tyrosine-protein kinase ABL1 (Homo sapiens, UniProt P00519+Q13671); assay type: functional;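 also: biochemical TR-FRET dose-response test measuring inhibition of binding between Rin1 and Abl proteins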
Chain of Ras and Rab interactor 1/Tyrosine-protein kinase ABL1 (P00519 whole entry): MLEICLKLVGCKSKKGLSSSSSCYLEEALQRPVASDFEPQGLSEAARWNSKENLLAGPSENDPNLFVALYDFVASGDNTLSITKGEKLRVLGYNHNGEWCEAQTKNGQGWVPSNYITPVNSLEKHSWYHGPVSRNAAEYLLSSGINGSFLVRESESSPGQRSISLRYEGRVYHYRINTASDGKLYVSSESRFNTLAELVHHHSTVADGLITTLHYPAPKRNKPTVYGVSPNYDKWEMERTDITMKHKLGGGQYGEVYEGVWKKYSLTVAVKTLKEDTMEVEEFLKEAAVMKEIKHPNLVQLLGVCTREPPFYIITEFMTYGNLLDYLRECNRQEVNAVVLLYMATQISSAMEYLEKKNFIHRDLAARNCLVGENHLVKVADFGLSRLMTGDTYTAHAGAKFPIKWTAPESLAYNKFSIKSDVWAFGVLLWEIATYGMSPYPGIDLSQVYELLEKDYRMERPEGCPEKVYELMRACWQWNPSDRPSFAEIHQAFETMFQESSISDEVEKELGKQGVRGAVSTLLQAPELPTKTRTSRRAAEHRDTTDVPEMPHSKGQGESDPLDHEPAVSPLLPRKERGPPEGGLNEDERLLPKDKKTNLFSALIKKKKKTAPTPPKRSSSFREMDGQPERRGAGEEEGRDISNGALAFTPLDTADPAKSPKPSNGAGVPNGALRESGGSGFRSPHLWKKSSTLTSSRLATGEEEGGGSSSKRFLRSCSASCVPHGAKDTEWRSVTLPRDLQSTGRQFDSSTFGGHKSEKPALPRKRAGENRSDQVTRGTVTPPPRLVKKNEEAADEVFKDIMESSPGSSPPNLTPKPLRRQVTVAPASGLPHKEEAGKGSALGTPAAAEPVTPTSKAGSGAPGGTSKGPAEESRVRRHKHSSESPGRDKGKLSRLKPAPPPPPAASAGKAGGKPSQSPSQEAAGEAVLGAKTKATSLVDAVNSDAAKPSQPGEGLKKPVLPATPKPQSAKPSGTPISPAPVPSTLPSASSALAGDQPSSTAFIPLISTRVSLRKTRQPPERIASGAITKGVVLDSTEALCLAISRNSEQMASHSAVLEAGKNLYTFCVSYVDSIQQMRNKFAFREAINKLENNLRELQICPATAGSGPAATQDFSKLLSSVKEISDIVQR
Chain of Ras and Rab interactor 1/Tyrosine-protein kinase ABL1 (Q13671 whole entry): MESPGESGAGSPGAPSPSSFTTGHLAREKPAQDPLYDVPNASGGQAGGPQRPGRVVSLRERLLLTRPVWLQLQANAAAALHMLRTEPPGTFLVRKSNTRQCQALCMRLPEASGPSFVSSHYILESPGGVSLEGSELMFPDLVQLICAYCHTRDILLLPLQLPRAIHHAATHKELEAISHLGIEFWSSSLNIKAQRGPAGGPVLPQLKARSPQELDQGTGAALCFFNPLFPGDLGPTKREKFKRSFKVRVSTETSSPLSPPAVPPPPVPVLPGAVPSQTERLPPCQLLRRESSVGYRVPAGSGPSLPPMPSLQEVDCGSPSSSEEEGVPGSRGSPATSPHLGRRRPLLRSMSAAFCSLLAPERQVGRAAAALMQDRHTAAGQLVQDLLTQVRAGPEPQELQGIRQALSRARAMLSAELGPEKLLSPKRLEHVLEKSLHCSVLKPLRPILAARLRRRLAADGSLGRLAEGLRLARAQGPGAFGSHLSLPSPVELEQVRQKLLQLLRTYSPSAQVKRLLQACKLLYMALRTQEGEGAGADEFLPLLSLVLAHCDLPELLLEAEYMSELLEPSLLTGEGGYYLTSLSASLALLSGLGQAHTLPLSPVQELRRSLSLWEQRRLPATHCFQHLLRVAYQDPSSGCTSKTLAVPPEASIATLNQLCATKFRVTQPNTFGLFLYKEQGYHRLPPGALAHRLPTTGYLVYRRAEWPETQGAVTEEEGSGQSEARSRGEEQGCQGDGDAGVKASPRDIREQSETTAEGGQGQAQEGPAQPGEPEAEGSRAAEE

CHO-K1 = assay: (§1) Counterscreen for antagonists of the orexin 1 receptor (OX1R; HCRTR1): Homogeneous time resolved fluorescence (HTRF)-based cell-based dose response assay to identify antagonists of the parental CHO-K1 cell line. [Related pubchem assays (depositor defined):AID434989, AID435008, AID463079, AID485270, AID492963, AID492964, AID492965, AID493232, AID504699, AID504701]; assay type: functional; conditions: Cricetulus griseus
[3] = as §1, with “Fluorescence-based” for “Homogeneous time resolved fluorescence (HTRF)-based”, “cell-based high throughput” for “cell-based”, “CHO” for “CHO-K1”; assay type: functional
[4] = molecular target: T1, Orexin/Hypocretin receptor type 1 (Homo sapiens, UniProt O43613); assay: Homogeneous Time Resolved Fluorescence (HTRF)-based cell-based high throughput dose response assay for antagonists of the orexin 1 receptor (OX1R; HCRTR1). [Related pubchem assays (depositor defined):AID434989, AID435008, AID463079, AID485270, AID492963, AID492964, AID492965, AID493232, AID504717, AID504718]; assay type: functional
T1 sequence (O43613 whole entry): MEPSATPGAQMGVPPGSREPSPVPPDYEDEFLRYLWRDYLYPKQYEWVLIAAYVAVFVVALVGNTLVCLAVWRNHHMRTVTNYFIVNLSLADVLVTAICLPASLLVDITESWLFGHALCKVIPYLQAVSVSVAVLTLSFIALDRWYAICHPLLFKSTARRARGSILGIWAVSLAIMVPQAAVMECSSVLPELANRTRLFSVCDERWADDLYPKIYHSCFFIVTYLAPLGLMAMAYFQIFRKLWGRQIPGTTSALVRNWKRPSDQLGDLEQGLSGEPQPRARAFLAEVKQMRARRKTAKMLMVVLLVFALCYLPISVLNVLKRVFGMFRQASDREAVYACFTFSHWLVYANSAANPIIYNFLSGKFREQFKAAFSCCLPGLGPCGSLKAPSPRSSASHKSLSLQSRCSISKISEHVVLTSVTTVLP

[5] = molecular target: T1, Orexin/Hypocretin receptor type 1; assay: Fluorescence-based cell-based high throughput dose response assay for antagonists of the orexin 1 receptor (OX1R; HCRTR1). [Related pubchem assays (depositor defined):AID434989, AID435008, AID463079, AID485270, AID492963, AID492964, AID492965, AID493232, AID504717, AID504718]; assay type: functional
Orexin receptor type 2 [6] = molecular target: T2, Orexin receptor type 2 (Homo sapiens, UniProt O43614); assay: Counterscreen assay for antagonists of the orexin 1 receptor (OX1R; HCRTR1): Fluorescence-based cell-based dose response assay for antagonists of the orexin 2 receptor (OX2R; HCRTR2), run by assay provider.; assay type: functional
T2 sequence (O43614 whole entry): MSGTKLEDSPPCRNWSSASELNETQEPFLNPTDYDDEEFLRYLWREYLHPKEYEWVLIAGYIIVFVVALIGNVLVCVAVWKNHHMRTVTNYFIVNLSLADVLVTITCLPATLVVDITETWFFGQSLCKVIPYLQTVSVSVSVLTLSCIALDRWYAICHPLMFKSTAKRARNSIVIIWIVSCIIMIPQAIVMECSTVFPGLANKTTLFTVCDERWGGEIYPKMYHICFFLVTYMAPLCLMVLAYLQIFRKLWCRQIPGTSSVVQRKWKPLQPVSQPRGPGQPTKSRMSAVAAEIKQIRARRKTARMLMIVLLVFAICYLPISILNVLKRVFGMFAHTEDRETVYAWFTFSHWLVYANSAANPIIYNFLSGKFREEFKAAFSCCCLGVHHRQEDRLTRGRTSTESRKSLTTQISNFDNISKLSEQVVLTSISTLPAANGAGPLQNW

Orexin receptor type 2 [7] = molecular target: T2, Orexin receptor type 2; assay: Counterscreen assay for antagonists of the orexin 1 receptor (OX1R; HCRTR1): Homogeneous Time Resolved Fluorescence (HTRF)-based cell-based dose response assay for antagonists of the orexin 2 receptor (OX2R; HCRTR2), run by assay provider.; assay type: functional
[8] = NIH-3T3 fibroblast cytotoxicity, dose response, cytotoxicity control, cell-based, fluorescence, Alamar Blue, secondary assay (AID 2327); assay type: functional;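 also: NIH-3T3 mouse fibroblasts cultured with fluconazole at 8 µg/mL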
[9] = inhibitors of firefly luciferase expression or activity, dose response, H4 neuroglioma cells, luminescence (AID 1990); assay type: functional, cell-based
[10] = tested on: Streptococcus sp. 'group A'; assay: growth inhibition of control SK(-) GAS strain, dose response, counter-screen for streptokinase expression inhibitor project, luminescence, kanamycin, BacTiterGlo, confirmation (AID 1900); assay type: functional, organism-based
[11] = Luminescence Cell-Based Dose Response HTS to Identify Inhibitors of 5'UTR Stem-Loop Driven Prion Protein mRNA Translation in H4 Neuroglioblastoma Cells. [Related pubchem assays: 1827 (Project Summary), 1813 (Primary HTS)]; assay type: functional
[12] = inhibitors of SNCA 5'UTR-driven reporter translation, confirmation, H4 neuroglioma cells, luminescence (AID 1988); assay type: functional, cell-based
[13] = C. albicans growth with fluconazole, confirmation, fluorescence, retest (AID 2467); assay type: functional, cell-based
[14] = inhibitors of intracellular T. cruzi replication, confirmation, NIH3T3 host cells, beta-gal luminescence (AID 2044); assay type: functional, cell-based;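 also: intracellular parasites grown in NIH/3T3 mouse fibroblasts as host cells; luminescent beta-galactosidase reporter signal from transgenic T. cruzi replicating inside host cells; inhibitors lower the luminescence signal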
[15] = molecular target: Serine/threonine-protein phosphatase (Candida dubliniensis (strain CD36 / CBS 7987 / NCPF 3949 / NRRLY-17841) (Yeast), UniProt B9W6M3); assay: calcineurin pathway inhibitors in yeast reporter, dose response, S. cerevisiae, CDRE-lacZ, luminescence, secondary (AID 2388); assay type: functional, cell-based;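 also: yeast reporter cells carrying a calcineurin-responsive lacZ construct stimulated with calcium chloride; luminescent beta-galactosidase reporter signal in whole cells rather than isolated phosphatase activity; potency for inhibition where a drop in reporter signal means calcineurin blockade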
[16] = cytotoxicity toward NIH3T3 fibroblasts, dose response, counter-screen, cell-based, ATP luminescence, mouse fibroblasts (AID 2010); assay type: functional;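 also: cells exposed to compound for about 90 hours before reading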
Streptococcus = assay: Group A Streptococcus viability loss, dose response, counter-screen for streptokinase expression inhibitor project, luminescence, BacTiterGlo (AID 1915); assay type: functional, organism-based;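 also: potency for reduction of bacterial viability or growth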
INS1 = assay: beta cell apoptosis inhibitors, cytokine rescue, dose response, luminescence, retest (AID 449756); assay type: functional, cell-based; conditions: Rattus norvegicus;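 also: cell death triggered by IL-1 beta plus TNF-alpha plus IFN-gamma mixture; protective hits raise ATP signal compared with cytokine alone wells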
[17] = molecular target: ATP-dependent molecular chaperone HSP82 (Candida albicans (strain WO-1) (Yeast), UniProt C4YTQ8); assay: loss of DOC-induced GRE-beta-galactosidase reporter signal, dose response, Hsp90 inhibitor project, S. cerevisiae, luminescence (AID 2400); assay type: functional, cell-based;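 also: beta-galactosidase luminescence from glucocorticoid response element reporter as proxy for Hsp90 function; inhibitor potency where signal loss means Hsp90 inhibition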
[18] = NIH-3T3 fibroblast cytotoxicity, dose response, cytotoxicity control for antifungal single agent project, cell-based, Alamar Blue, dry powder (AID 602188); assay type: functional
Streptokinase A = molecular target: T3, Streptokinase A (Streptococcus pyogenes serotype M1, UniProt P10520); assay: S. pyogenes streptokinase expression inhibitors, potency, dose response, plasminogen activation absorbance, OD405 (AID 1914); assay type: functional, Streptococcus pyogenes M1 GAS;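 also: secreted streptokinase activity via plasminogen activation per viability signal from cell pellet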
T3 sequence (P10520 whole entry): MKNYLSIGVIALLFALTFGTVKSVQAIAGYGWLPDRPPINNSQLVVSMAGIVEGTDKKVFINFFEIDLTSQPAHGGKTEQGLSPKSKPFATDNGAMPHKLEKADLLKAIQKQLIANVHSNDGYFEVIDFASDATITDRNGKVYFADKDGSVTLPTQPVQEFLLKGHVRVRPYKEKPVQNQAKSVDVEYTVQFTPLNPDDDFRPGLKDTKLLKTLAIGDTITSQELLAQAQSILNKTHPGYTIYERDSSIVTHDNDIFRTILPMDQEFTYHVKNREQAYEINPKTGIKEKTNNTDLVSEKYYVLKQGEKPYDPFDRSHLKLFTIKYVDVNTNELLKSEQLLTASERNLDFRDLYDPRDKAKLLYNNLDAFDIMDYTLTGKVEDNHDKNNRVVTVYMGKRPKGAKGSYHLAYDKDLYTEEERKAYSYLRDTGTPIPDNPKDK

[19] = molecular target: Tyrosine-protein phosphatase non-receptor type 11 (Homo sapiens, UniProt Q06124); assay: SHP2 phosphatase inhibition, dose response, selectivity assay for STEP inhibitor project, biochemical (AID 602367); assay type: functional; conditions: read-out: IC50_Mean
Chain of Tyrosine-protein phosphatase non-receptor type 11 (Q06124 whole entry): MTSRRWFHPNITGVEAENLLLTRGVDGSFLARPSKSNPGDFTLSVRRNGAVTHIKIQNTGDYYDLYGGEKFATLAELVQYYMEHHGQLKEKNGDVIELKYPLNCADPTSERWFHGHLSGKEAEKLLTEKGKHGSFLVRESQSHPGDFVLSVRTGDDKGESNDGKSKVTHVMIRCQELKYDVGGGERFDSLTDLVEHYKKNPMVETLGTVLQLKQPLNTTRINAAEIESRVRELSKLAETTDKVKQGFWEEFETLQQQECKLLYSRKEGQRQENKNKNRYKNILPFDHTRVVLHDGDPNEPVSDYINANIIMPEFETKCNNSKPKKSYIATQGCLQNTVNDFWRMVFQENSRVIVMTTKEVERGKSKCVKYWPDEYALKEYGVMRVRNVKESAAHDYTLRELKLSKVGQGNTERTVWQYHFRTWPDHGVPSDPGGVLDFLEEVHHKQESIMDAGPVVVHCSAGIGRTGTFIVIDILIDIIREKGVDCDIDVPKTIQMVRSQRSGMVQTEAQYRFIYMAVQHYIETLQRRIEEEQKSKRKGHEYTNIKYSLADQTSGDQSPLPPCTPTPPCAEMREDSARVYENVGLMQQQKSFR

[20] = molecular target: Tyrosine-protein phosphatase non-receptor type 5 (Homo sapiens, UniProt P54829); assay: STEP phosphatase inhibitors, confirmation, biochemical, fluorescence intensity, uHTS hits (AID 602372); assay type: functional; conditions: read-out: IC50_Mean
[21] = molecular target: Dual specificity protein phosphatase 3 (Homo sapiens, UniProt P51452); assay: VHR phosphatase inhibition, dose response, selectivity assay for STEP inhibitor project, biochemical (AID 602374); assay type: functional; conditions: read-out: IC50_Mean
Chain of Dual specificity protein phosphatase 3 (P51452 whole entry): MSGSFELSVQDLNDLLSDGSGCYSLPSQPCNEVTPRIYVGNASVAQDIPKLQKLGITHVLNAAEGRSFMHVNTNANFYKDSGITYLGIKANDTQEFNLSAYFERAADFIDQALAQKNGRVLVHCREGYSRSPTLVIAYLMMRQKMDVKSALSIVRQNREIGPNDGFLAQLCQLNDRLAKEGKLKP

[22] = molecular target: Potassium voltage-gated channel subfamily KQT member 2 (Rattus norvegicus, UniProt O88943); assay: KCNQ2 potassium channel inhibitors, dose response, cell-based, automated electrophysiology, set II, rat KCNQ2 (AID 588637); assay type: functional
Chain of Potassium voltage-gated channel subfamily KQT member 2 (O88943 whole entry): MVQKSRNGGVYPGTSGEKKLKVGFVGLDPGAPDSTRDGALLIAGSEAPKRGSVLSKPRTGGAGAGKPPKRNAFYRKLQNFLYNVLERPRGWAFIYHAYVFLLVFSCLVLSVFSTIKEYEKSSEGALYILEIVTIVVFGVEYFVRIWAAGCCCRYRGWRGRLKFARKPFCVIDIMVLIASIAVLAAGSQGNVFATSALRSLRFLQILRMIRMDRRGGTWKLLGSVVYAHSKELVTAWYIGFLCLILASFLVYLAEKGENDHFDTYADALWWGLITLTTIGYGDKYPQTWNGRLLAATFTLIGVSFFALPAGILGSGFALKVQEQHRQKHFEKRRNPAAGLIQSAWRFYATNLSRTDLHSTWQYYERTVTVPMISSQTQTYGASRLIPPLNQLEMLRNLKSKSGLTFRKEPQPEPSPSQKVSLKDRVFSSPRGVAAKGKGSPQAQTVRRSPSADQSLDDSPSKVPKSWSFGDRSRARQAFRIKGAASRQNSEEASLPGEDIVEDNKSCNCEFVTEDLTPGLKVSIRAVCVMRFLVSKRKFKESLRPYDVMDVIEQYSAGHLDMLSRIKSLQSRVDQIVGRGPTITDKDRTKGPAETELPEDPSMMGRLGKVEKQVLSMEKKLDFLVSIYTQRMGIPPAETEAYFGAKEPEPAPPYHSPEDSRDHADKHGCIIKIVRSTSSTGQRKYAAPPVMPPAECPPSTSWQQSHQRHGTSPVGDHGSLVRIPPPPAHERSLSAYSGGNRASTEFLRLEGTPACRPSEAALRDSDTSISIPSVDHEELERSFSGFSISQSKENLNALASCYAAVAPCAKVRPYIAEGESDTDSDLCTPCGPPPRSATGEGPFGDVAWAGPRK

[23] = molecular target: Melanin-concentrating hormone receptor 1 (Homo sapiens, UniProt Q99705); assay: Late-stage fluorescence-based counterscreen for antagonists of the G-protein coupled receptor 7 (GPR7): cell-based dose response assay to identify antagonists of the melanin-concentrating hormone receptor 1 (MCHR1) Set 6.; assay type: functional
Chain of Melanin-concentrating hormone receptor 1 (Q99705 whole entry): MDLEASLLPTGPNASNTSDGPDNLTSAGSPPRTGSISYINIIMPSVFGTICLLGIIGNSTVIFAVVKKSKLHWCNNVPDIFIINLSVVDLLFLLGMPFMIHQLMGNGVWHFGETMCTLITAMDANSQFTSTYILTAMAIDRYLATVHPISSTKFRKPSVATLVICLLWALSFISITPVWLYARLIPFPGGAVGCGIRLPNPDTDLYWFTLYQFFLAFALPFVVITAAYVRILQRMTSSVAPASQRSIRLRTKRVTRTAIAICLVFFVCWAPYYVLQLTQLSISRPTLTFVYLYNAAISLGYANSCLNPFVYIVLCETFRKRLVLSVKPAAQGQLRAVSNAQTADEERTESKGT

[24] = molecular target: T4, Neuropeptides B/W receptor type 1 (Homo sapiens, UniProt P48145); assay: GPR7 antagonist potency, late-stage follow-up, cell-based, fluorescence, dose response, set 6 (AID 588583); assay type: functional
T4 sequence (P48145 whole entry): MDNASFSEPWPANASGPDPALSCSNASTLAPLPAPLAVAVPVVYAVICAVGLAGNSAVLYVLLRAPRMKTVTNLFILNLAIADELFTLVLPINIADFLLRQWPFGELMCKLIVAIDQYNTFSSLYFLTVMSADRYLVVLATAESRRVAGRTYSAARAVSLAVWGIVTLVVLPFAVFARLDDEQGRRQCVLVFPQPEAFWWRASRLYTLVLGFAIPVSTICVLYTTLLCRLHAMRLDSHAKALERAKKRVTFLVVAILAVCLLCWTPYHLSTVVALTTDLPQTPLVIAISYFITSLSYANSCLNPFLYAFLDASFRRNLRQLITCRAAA

Melanocortin receptor 4 = Melanocortin receptor 4 (Homo sapiens, UniProt P32245); assay type: functional, cell-based;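 also: Cell-based assay with luminescence read-out, confirmatory dose-response testing for agonist activity of biased ligands at MC4R; human U2OS cells with tagged receptor and beta-arrestin; potency of agonists that increase receptor coupling to beta-arrestin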
Chain of Melanocortin receptor 4 (P32245 whole entry): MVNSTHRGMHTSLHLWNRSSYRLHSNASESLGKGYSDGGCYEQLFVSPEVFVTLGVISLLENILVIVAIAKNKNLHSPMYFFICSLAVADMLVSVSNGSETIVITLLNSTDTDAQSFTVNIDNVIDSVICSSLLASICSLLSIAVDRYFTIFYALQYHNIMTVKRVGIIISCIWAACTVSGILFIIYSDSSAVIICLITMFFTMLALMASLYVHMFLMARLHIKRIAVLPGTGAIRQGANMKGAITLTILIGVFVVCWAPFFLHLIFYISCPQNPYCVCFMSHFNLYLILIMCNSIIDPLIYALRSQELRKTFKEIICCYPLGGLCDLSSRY

[25] = molecular target: Mitochondrial peptide methionine sulfoxide reductase (Bos taurus, UniProt P54149); assay type: functional;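 also: absorbance read-out, biochemical high-throughput dose-response screen for MsrA inhibitors, confirmatory; recombinant bovine MsrA coupled to E. coli TrxB with NADPH and selenocystamine; potency is for inhibitors of MsrA activity on DMSO substrate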
Chain of Mitochondrial peptide methionine sulfoxide reductase (P54149 whole entry): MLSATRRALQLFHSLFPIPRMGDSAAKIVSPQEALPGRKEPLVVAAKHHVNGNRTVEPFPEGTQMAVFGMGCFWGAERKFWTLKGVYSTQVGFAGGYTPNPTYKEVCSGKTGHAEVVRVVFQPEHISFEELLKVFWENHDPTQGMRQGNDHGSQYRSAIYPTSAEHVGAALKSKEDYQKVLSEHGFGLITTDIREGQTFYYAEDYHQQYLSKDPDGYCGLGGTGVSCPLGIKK

[26] = inhibitors of Vif binding to APOBEC3G peptide, primary screen, biochemical, TR-FRET, GST-Vif 1-94, biotin-A3G peptide, dose response retest (AID 1117319); assay type: functional;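 also: TR-FRET signal of purified GST-Vif binding a biotinylated A3G peptide; inhibitors lower the FRET signal by blocking Vif and A3G binding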
Aurora kinase B = Aurora kinase B (Homo sapiens, UniProt Q96GD4); assay type: functional
Chain of Aurora kinase B (Q96GD4 whole entry): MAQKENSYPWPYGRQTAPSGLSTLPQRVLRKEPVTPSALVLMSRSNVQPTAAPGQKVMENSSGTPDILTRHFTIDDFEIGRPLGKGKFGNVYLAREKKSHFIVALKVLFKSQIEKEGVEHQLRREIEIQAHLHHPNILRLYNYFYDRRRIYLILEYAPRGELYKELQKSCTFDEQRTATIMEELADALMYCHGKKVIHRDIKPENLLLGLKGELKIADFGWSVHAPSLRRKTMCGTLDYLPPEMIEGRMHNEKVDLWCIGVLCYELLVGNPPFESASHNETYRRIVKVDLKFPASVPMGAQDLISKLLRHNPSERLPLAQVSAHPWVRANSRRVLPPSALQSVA

Cc1cccc(C)c1-n1c(SCC(=O)N2CC(=O)Nc3ccccc32)nc2ccccc2c1=O
EC50 [1]: 10 nM (active)

CCOC(=O)C1CCCN(C(=O)c2cn(C)c(=O)c3cc(OC)c(OC)cc23)C1 (centres undefined)
IC50 [2]: 14.1 µM (inactive)

COc1ccc(N(CC(=O)NCCc2cccc(C)c2)S(=O)(=O)c2c(C)noc2C)cc1
IC50 (CHO-K1): > 66.2 µM (inactive) | IC50 [3]: > 49.8 µM (inactive) | IC50 [4]: 653 nM (active) | IC50 [5]: 7.14 µM (active) | IC50 (Orexin receptor type 2 [6]): > 88.8 µM (inactive) | IC50 (Orexin receptor type 2 [7]): 2.27 µM (active)

CN1CCN(C(c2ccc(C(F)(F)F)cc2)c2ccc3cccnc3c2O)CC1 (centres undefined)
EC50 [8]: > 150 µM (inconclusive) | EC50 [9]: 9.1 µM (active) | EC50 [10]: 2.92 µM (active) | EC50 [11]: 10.3 µM (active) | EC50 [12]: 8.06 µM (active) | EC50 [13]: 676 nM (active) | EC50 [14]: 1.64 µM (active) | EC50 [15]: > 180 µM (inactive) | EC50 [16]: 7.46 µM (active) | EC50 (Streptococcus): 2.91 µM (active) | AC50 (INS1): 2.43 µM (active) | EC50 [17]: 14 µM (active) | AC50 [18]: 6.73 µM (active)

SC1=NC(C23CC4CC(CC(C4)C2)C3)=CC(c2ccc3c(c2)OCO3)N1 (centres undefined)
EC50 [10]: 13.6 µM (active) | EC50 (Streptokinase A): 22.5 µM (active) | EC50 [14]: 2.44 µM (active) | EC50 [16]: > 60 µM (not active) | EC50 (Streptococcus): > 150 µM (not active) | IC50 [19]: 15 µM (active) | IC50 [20]: 56.8 µM (inactive) | IC50 [21]: 3.52 µM (active)

O=C(COc1ccc(Cl)cc1Cl)N(c1ccccn1)C1CCCCC1
IC50 [22]: 69.9 nM (active)

C=CCNC(=O)CCC(=O)NNc1nc2ccccc2c2nc(-c3ccccc3)nn12
IC50 (CHO-K1): > 66.2 µM (inactive) | IC50 [3]: > 49.7 µM (inactive) | IC50 [4]: 1200 nM (active) | IC50 [5]: 6.87 µM (active) | IC50 (Orexin receptor type 2 [6]): > 88.8 µM (inactive) | IC50 (Orexin receptor type 2 [7]): > 50 µM (inactive)

N#CC(c1c(Cl)cnn(Cc2cccc3ccccc23)c1=O)c1csc2ccccc12 (centres undefined)
IC50 [23]: > 20 µM (inactive) | IC50 [24]: > 20 µM (inactive)

CC(C#N)c1c(Cl)cnn(Cc2cccc3ccccc23)c1=O (centres undefined)
IC50 [23]: 3.1 µM (active) | IC50 [24]: 3.1 µM (active)

CC(=O)Nc1cc(-c2ccc(CO)cc2)cn2c(-c3cccc(C(F)(F)F)c3)cnc12
EC50 (Melanocortin receptor 4): > 89.2 µM (inactive)

NC(=S)N/N=C/c1ccc(-c2cccc([N+](=O)[O-])c2)o1
IC50 [25]: 155 µM (inactive) | IC50 [26]: > 100 µM (active)

O=C(O)c1ccccc1Nc1ccnc(Nc2ccc(O)cc2)n1
Ki (Aurora kinase B): 2 nM (active)
